# Measurements taken from patent publication USRE37781E1, “Substituted cyclic carbonyls and derivatives thereof useful as retroviral protease inhibitors” (DuPont Pharmaceuticals Company, priority 1991, dated 2002).
# Like-named read-outs stand apart in the source and are kept apart here.
# What was measured:
# [1] = target: single-chain tethered dimer of HIV protease (Human immunodeficiency virus 1, UniProt P04585); test: biochemical; type: biochemical
# Procedure: HIV Protease Inhibition Assay—HPLC Method
# Active protease was prepared as described therein by extraction with 67% acetic acid, dilution 33-fold with water, dialysis against water and then against a “refolding buffer” consisting of 20 mM MES, 1 mM dithiothreitol and 10% glycerol. Protease was stored as a stock preparation at 10 uM in refolding buffer.
# Substrate: Peptide of sequence: aminobenzoyl-Ala-Thr-His-Gln-Val-Tyr-Phe(NO2)-Val-Arg-Lys-Ala containing p-nitrophenylalanine, was prepared by solid phase synthesis as previously described Cheng et al., op.cit. Stock solutions of 2 mM substrate were prepared in DMSO.
# Inhibitory compounds were dissolved in sufficient DMSO to make 3 mM stock solutions. All further dilutions were prepared in “assay buffer”: 1M NaCl, 50 mM MES, pH 5.5, 1 mM EDTA, 1 mM DTT, […] glycerol.
# Enzyme reaction: In a 2 ml screw-cap centrifuge tube were added 50 ul protease (final concentration 0.25 nM) and 0.1 ml inhibitory compound (final concentration […]). After 15 min preincubation at room temperature, the reaction was started with the addition of 0.05 ml substrate (final concentration 5 uM). Incubation was carried out at 30 C. for 1 hr. The reaction was stopped with 1 ml 0.1M ammonium hydroxide.
# HPLC measurement of product formation: The product (aminobenzoyl-Ala-Thr-His-Gln-Val-Tyr) was separated from substrate on a Pharmacia MonoQ anion exchange column. The injection volume was 0.2 ml. The mobile phases were: A (20 mM trisHCl, pH 9.0, 0.02% sodium Azide, 10% acetonitrile), B (20 mM tris HCl, pH 9.0, 0.02% sodium azide, 0.5M ammonium formate, 10% acetonitrile). The mobile phases were pumped at 1 ml/min, with a gradient from 0 to 30% B in 5 min, 100% B for 4 min to wash the column, and a re-equilibration for 4 min. The retention time of the product was 3.6 min. Detection with a Shimadzu model RF535 fluorescence monitor was at 330 nm (excitation) and 430 (emission).
# HIV-1 (RF) in MT-2 cells = test: microbe, parasite or virus in culture; type: cell-based; details: HIV-1 infected MT-2 cells, class symbols
# Method in brief: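 Read-out: gag and pol viral RNA captured by 5′-biotinylated oligonucleotides on streptavidin-coated wells, detected with alkaline phosphatase-linked reporter oligonucleotides, calibrated against BH10 in vitro transcripts. Virus stocks (RF, MN, IIIB) come from H9 cultures; MT-2 host cells kept in RPMI 1640, 5% FCS.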
# [2] = Human immunodeficiency virus 1, MT2, HIV RNA assay, read-out: IC90
# [3] = HIV protease inhibition, class symbols, read-out: Ki
SMILES,Ki [1] [µM],IC90 (HIV-1 (RF) in MT-2 cells; [2]) [µg/mL],"Ki [1, 3] [µM]",IC90 (HIV-1 (RF) in MT-2 cells; HIV RNA assay)
O=C1N(Cc2ccccc2)C(Cc2ccccc2)C(O)C(O)C(Cc2ccccc2)N1Cc1ccncc1 (stereo not shown) [Example 4B],< 0.01,< 10,,
O=C1N(Cc2ccncc2)C(Cc2ccccc2)C(O)C(O)C(Cc2ccccc2)N1CC1CC1 (stereo not shown) [Example 4C],< 0.01,< 10,,
O=C1N(Cc2ccccc2)C(Cc2ccccc2)C(O)C(O)C(Cc2ccccc2)N1CC1CCCC1 (stereo not shown) [Example 4E],,,< 0.01,+++ (+++=<10 μg/mL)
O=C1N(CC2CCCC2)C(Cc2ccccc2)C(O)C(O)C(Cc2ccccc2)N1CC1CC1 (stereo not shown) [Example 4F],< 0.01,< 10,,
CCCN1C(=O)N(Cc2ccccc2)C(Cc2ccccc2)C(O)C(O)C1Cc1ccccc1 (stereo not shown) [Example 4G],< 0.01,< 10,,
[2H]c1c([2H])c([2H])c(C([2H])([2H])N2C(=O)N(C([2H])([2H])c3c([2H])c([2H])c([2H])c([2H])c3[2H])C(Cc3ccccc3)C(O)C(O)C2Cc2ccccc2)c([2H])c1[2H] (stereo not shown) [Example 4H],< 0.01,< 10,,
O=C1N(CC=Cc2ccccc2)C(Cc2ccccc2)C(O)C(O)C(Cc2ccccc2)N1CC1CC1 (stereo not shown) [Example 4I],< 0.01,< 10,,
O=C1N(Cc2ccccn2)C(Cc2ccccc2)C(O)C(O)C(Cc2ccccc2)N1CC1CC1 (stereo not shown) [Example 4N],,,< 0.01,+++ (+++=<10 μg/mL)
O=C1N(Cc2ccccc2)C(Cc2ccccc2)C(O)C(O)C(Cc2ccccc2)N1Cc1ccc2ccccc2n1 (stereo not shown) [Example 4O],0.01 to 1,< 10,,
CCCN1C(=O)N(Cc2ccc3ccccc3c2)C(Cc2ccccc2)C(O)C(O)C1Cc1ccccc1 (stereo not shown) [Example 4T],,,< 0.01,+++ (+++=<10 μg/mL)
C=CCN1C(=O)N(CC2CCCC2)C(Cc2ccccc2)C(O)C(O)C1Cc1ccccc1 (stereo not shown) [Example 5B],,,< 0.01,+++ (+++=<10 μg/mL)
C=CCN1C(=O)N(Cc2ccc3ccccc3n2)C(Cc2ccccc2)C(O)C(O)C1Cc1ccccc1 (stereo not shown) [Example 5D],,,< 0.01,+++ (+++=<10 μg/mL)
C=CCN1C(=O)N(Cc2ccncc2)C(Cc2ccccc2)C(O)C(O)C1Cc1ccccc1 (stereo not shown) [Example 5E],0.01 to 1,< 10,,
O=C1N(Cc2cccnc2)C(Cc2ccccc2)C(O)C(O)C(Cc2ccccc2)N1CC1CC1 (stereo not shown) [Example 5G],,,< 0.01,+++ (+++=<10 μg/mL)
O=C1N(Cc2cccnc2)C(Cc2ccccc2)C(O)C(O)C(Cc2ccccc2)N1Cc1cccnc1 (stereo not shown) [Example 5O],< 0.01,< 10,,
COC(=O)c1cccc(CN2C(=O)N(Cc3cccc(C(=O)OC)c3)C(Cc3ccccc3)C(O)C(O)C2Cc2ccccc2)c1 (stereo not shown) [Example 5T],< 0.01,< 10,,
CC(C)N1C(=O)N(Cc2ccc(O)cc2)C(Cc2ccccc2)C(O)C(O)C1Cc1ccccc1 (stereo not shown) [Example 5Y],,,< 0.01,+++ (+++=<10 μg/mL)
O=C(O)c1cccc(CN2C(=O)N(Cc3cccc(C(=O)O)c3)C(Cc3ccccc3)C(O)C(O)C2Cc2ccccc2)c1 (stereo not shown) [Example 6A],,,< 0.01,+++ (+++=<10 μg/mL)
O=C(O)c1ccc(CN2C(=O)N(Cc3ccc(C(=O)O)cc3)C(Cc3ccccc3)C(O)C(O)C2Cc2ccccc2)cc1 (stereo not shown) [Example 6B],,,0.01 to 1,++ (++=10 to 100 μg/mL)

SMILES,Ki [1] [µM],IC90 (HIV-1 (RF) in MT-2 cells; [2]) [µg/mL],"Ki [1, 3] [µM]",IC90 (HIV-1 (RF) in MT-2 cells; HIV RNA assay)
O=C1N(Cc2cccc(O)c2)C(Cc2ccccc2)C(O)C(O)C(Cc2ccccc2)N1CC1CC1 (stereo not shown) [Example 6D],,,< 0.01,+++ (+++=<10 μg/mL)
O=C1N(Cc2ccc(O)cc2)C(Cc2ccccc2)C(O)C(O)C(Cc2ccccc2)N1CC1CC1 (stereo not shown) [Example 6E],,,< 0.01,+++ (+++=<10 μg/mL)
O=C1N(Cc2ccc(Cl)s2)C(Cc2ccccc2)C(O)C(O)C(Cc2ccccc2)N1Cc1ccc(Cl)s1 (stereo not shown) [Example 6F],,,0.01 to 1,+++ (+++=<10 μg/mL)
O=C1N(CC2CCC2)C(Cc2ccccc2)C(O)C(O)C(Cc2ccccc2)N1CC1CCC1 (stereo not shown) [Example 6G],< 0.01,< 10,,
O=C1N(CC2CCCC2)C(Cc2ccccc2)C(O)C(O)C(Cc2ccccc2)N1CC1CCCC1 (stereo not shown) [Example 6H],< 0.01,< 10,,
CCCCN1C(=O)N(CC=C(C)C)C(Cc2ccccc2)C(O)C(O)C1Cc1ccccc1 (stereo not shown) [Example 6I],,,< 0.01,+++ (+++=<10 μg/mL)
CCCCN1C(=O)N(CC2CCCC2)C(Cc2ccccc2)C(O)C(O)C1Cc1ccccc1 (stereo not shown) [Example 6J],< 0.01,< 10,,
CC(C)N1C(=O)N(Cc2ccccn2)C(Cc2ccccc2)C(O)C(O)C1Cc1ccccc1 (stereo not shown) [Example 6L],0.01 to 1,< 10,,
COc1ccc(CN2C(=O)N(Cc3ccc(OC)cc3)C(Cc3ccccc3)C(O)C(O)C2Cc2ccccc2)cc1 (stereo not shown) [Example 6M],,,0.01 to 1,+++ (+++=<10 μg/mL)
CN(C)CCN1C(=O)N(CCN(C)C)C(Cc2ccccc2)C(O)C(O)C1Cc1ccccc1 (stereo not shown) [Example 6N],,,> 1,+ (+=>100 μg/mL)
O=C1N(Cc2ccccc2F)C(Cc2ccccc2)C(O)C(O)C(Cc2ccccc2)N1Cc1ccccc1F (stereo not shown) [Example 6P],0.01 to 1,< 10,,
COc1cccc(CN2C(=O)N(Cc3cccc(OC)c3)C(Cc3ccccc3)C(O)C(O)C2Cc2ccccc2)c1 (stereo not shown) [Example 6Q],< 0.01,< 10,,
CN(C)CCN1C(=O)N(CCN(C)C)C(Cc2ccccc2)C(O)C(O)C1Cc1ccccc1 (stereo not shown) [Example 6R],> 1,> 100,,
O=C1N(Cc2ccc(F)c(F)c2)C(Cc2ccccc2)C(O)C(O)C(Cc2ccccc2)N1Cc1ccc(F)c(F)c1 (stereo not shown) [Example 6S],< 0.01,< 10,,
Cc1ccc(CN2C(=O)N(Cc3ccc(C)cc3)C(Cc3ccccc3)C(O)C(O)C2Cc2ccccc2)cc1 (stereo not shown) [Example 6T],< 0.01,< 10,,
O=C1N(Cc2ccc(Cl)cc2)C(Cc2ccccc2)C(O)C(O)C(Cc2ccccc2)N1Cc1ccc(Cl)cc1 (stereo not shown) [Example 6U],< 0.01,< 10,,
O=C1N(Cc2ccc(F)cc2)C(Cc2ccccc2)C(O)C(O)C(Cc2ccccc2)N1CC1CC1 (stereo not shown) [Example 6V],,,< 0.01,+++ (+++=<10 μg/mL)
Cc1cccc(CN2C(=O)N(Cc3cccc(C)c3)C(Cc3ccccc3)C(O)C(O)C2Cc2ccccc2)c1 (stereo not shown) [Example 6ZA],< 0.01,< 10,,
COc1ccccc1CN1C(=O)N(Cc2ccccc2OC)C(Cc2ccccc2)C(O)C(O)C1Cc1ccccc1 (stereo not shown) [Example 6ZB],> 1,10 to 100,,
